What was measured:
Test in all cases: fitness (endpoint OD595 vs no drug) (fraction); higher = more growth
[1] = test system: B. subtilis 168
Method in brief: (§1)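 With the first reading as background, OD595 was measured every 30 min for 14 h in 384-well plates kept at 37 °C and inoculated at OD595 0.01. TSB, LB Lennox or CY was the medium. Fitness is the optical density at the transition into stationary phase divided by the robust mean of no-drug control wells, with a cap of 1.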

[2] = test system: S. aureus Newman
Method in brief: as §1

[3] = test system: S. aureus DSM 20231
Method in brief: as §1

[4] = test system: S. pneumoniae D39V
Method in brief: as §1
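Also: OD595 on entry to stationary phase over no-drug wells; at most 1.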

N[C@@H]1CONC1=O [Cycloserine D] + CC(C1CCC(C(O1)OC2C(CC(C(C2O)OC3C(C(C(CO3)(C)O)NC)O)N)N)N)NC [Gentamicin]
main component drawn
Settings	fitness
[1], first compound 0.125 µg/mL, partner 0.0625 µg/mL	0.964
[1], first compound 0.125 µg/mL, partner 0.25 µg/mL	0.102
[1], first compound 0.25 µg/mL, partner 0.0625 µg/mL	0.943
[1], first compound 0.25 µg/mL, partner 0.25 µg/mL	0.0775
[1], first compound 0.5 µg/mL, partner 0.0625 µg/mL	0.914
[1], first compound 0.5 µg/mL, partner 0.25 µg/mL	0.0653
[2], first compound 0.375 µg/mL, partner 0.375 µg/mL	0.986
[2], first compound 0.375 µg/mL, partner 0.5 µg/mL	0.923
[2], first compound 0.375 µg/mL, partner 0.75 µg/mL	0.974
[2], first compound 0.375 µg/mL, partner 1 µg/mL	≥ 1
[2], first compound 0.375 µg/mL, partner 1.5 µg/mL	0.955
[2], first compound 0.375 µg/mL, partner 2 µg/mL	≥ 1
[2], first compound 0.75 µg/mL, partner 0.375 µg/mL	≥ 1
[2], first compound 0.75 µg/mL, partner 0.5 µg/mL	0.921
[2], first compound 0.75 µg/mL, partner 0.75 µg/mL	≥ 1
[2], first compound 0.75 µg/mL, partner 1 µg/mL	≥ 1
[2], first compound 0.75 µg/mL, partner 2 µg/mL	≥ 1
[2], first compound 1.5 µg/mL, partner 0.375 µg/mL	1
[2], first compound 1.5 µg/mL, partner 0.5 µg/mL	0.952
[2], first compound 1.5 µg/mL, partner 0.75 µg/mL	≥ 1
[2], first compound 1.5 µg/mL, partner 1 µg/mL	≥ 1
[2], first compound 1.5 µg/mL, partner 2 µg/mL	≥ 1

N[C@@H]1CONC1=O [Cycloserine D] + CCC[C@@H]1C[C@@H](C(=O)N[C@@H]([C@H]2O[C@H](SC)[C@H](O)[C@@H](O)[C@H]2O)[C@@H](C)O)N(C)C1 [Lincomycin]
fitness
Settings	first compound 0.125 µg/mL	first compound 0.25 µg/mL	first compound 0.375 µg/mL	first compound 0.5 µg/mL	first compound 0.75 µg/mL	first compound 1.5 µg/mL
[1], partner 0.1 µg/mL	0.87	0.873	–	0.911	–	–
[1], partner 0.2 µg/mL	0.861	0.877	–	0.932	–	–
[1], partner 0.4 µg/mL	0.868	0.906	–	0.964	–	–
[3], partner 0.1 µg/mL	–	–	0.936	–	0.921	0.915
[3], partner 0.4 µg/mL	–	–	0.278	–	0.271	0.247

fitness, [1], one replicate
Settings	first compound 0.125 µg/mL	first compound 0.25 µg/mL	first compound 0.5 µg/mL
partner 0.8 µg/mL	0.923	0.939	0.905
partner 1.6 µg/mL	0.88	0.813	0.862

N[C@@H]1CONC1=O [Cycloserine D] + CN(C)c1cc(NC(=O)CNC(C)(C)C)c(O)c2c1C[C@H]1C[C@H]3[C@H](N(C)C)C(O)=C(C(N)=O)C(=O)[C@@]3(O)C(O)=C1C2=O [Tigecycline]
fitness
Settings	first compound 0.125 µg/mL	first compound 0.25 µg/mL	first compound 0.375 µg/mL	first compound 0.5 µg/mL	first compound 0.75 µg/mL	first compound 1.5 µg/mL
[1], partner 0.039 µg/mL	0.944	0.987	–	≥ 1	–	–
[1], partner 0.078 µg/mL	0.955	0.867	–	0.912	–	–
[1], partner 0.156 µg/mL	0.914	0.911	–	0.982	–	–
[2], partner 0.039 µg/mL	–	–	0.956	–	0.936	0.931
[2], partner 0.078 µg/mL	–	–	0.981	–	≥ 1	0.994
[2], partner 0.156 µg/mL	–	–	0.986	–	0.983	0.971

fitness, [1], one replicate
Settings	first compound 0.125 µg/mL	first compound 0.25 µg/mL	first compound 0.5 µg/mL
partner 0.125 µg/mL	≥ 1	≥ 1	0.994
partner 0.25 µg/mL	≥ 1	0.97	0.922
partner 0.5 µg/mL	0.944	0.94	≥ 1

N[C@@H]1CONC1=O [Cycloserine D] + CN[C@@H]1[C@H](O[C@H]2[C@H](O[C@H]3[C@H](O)[C@@H](O)[C@H](N=C(N)N)[C@@H](O)[C@@H]3N=C(N)N)O[C@@H](C)[C@]2(O)C=O)O[C@@H](CO)[C@H](O)[C@H]1O [Streptomycin]
fitness
Settings	first compound 0.125 µg/mL	first compound 0.25 µg/mL	first compound 0.375 µg/mL	first compound 0.5 µg/mL	first compound 0.75 µg/mL	first compound 1.5 µg/mL
[1], partner 2 µg/mL	0.931	0.937	–	0.982	–	–
[1], partner 8 µg/mL	0.0826	0.0554	–	0.074	–	–
[2], partner 1 µg/mL	–	–	0.984	–	0.985	0.978
[2], partner 2 µg/mL	–	–	0.976	–	0.93	0.941

N[C@@H]1CONC1=O [Cycloserine D] + COc1cc(Cc2cnc(N)nc2N)cc(OC)c1OC [Trimethoprim]
fitness, [1], one replicate
Settings	partner 0.1 µg/mL	partner 0.2 µg/mL	partner 0.4 µg/mL	partner 1 µg/mL	partner 2 µg/mL
first compound 0.125 µg/mL	0.917	0.789	0.584	0.344	0.268
first compound 0.25 µg/mL	0.849	0.757	0.56	0.323	0.243
first compound 0.5 µg/mL	0.986	0.818	0.533	0.358	0.234

fitness
Settings	partner 0.125 µg/mL	partner 0.25 µg/mL	partner 0.5 µg/mL	partner 1 µg/mL
[1], first compound 0.125 µg/mL	0.635	0.501	0.475	–
[1], first compound 0.25 µg/mL	0.664	–	0.48	–
[1], first compound 0.5 µg/mL	0.664	–	0.511	–
[3], first compound 0.375 µg/mL	0.758	–	–	0.0316
[3], first compound 0.75 µg/mL	0.807	0.61	–	0.0296
[3], first compound 1.5 µg/mL	0.804	0.569	–	0.0385

O=C(O[C@@H]1Cc2c(O)cc(O)cc2O[C@@H]1c1cc(O)c(O)c(O)c1)c1cc(O)c(O)c(O)c1 [EGCG] + CC1(C)S[C@@H]2[C@H](NC(=O)Cc3ccccc3)C(=O)N2[C@H]1C(=O)O [Penicillin G]
fitness, [2]
Settings	first compound 12.5 µg/mL	first compound 25 µg/mL	first compound 50 µg/mL
partner 0.0195 µg/mL	0.738	0.623	–
partner 0.039 µg/mL	0.743	0.739	0.594
partner 0.078 µg/mL	0.741	0.729	0.644

O=C(O[C@@H]1Cc2c(O)cc(O)cc2O[C@@H]1c1cc(O)c(O)c(O)c1)c1cc(O)c(O)c(O)c1 [EGCG] + CC1=C(C(=O)O)N2C(=O)[C@@H](NC(=O)[C@H](N)c3ccccc3)[C@H]2SC1 [Cephalexin]
fitness, one replicate
Settings	first compound 6.25 µg/mL	first compound 12.5 µg/mL	first compound 25 µg/mL	first compound 50 µg/mL
[1], partner 1 µg/mL	0.993	0.862	0.697	–
[4], partner 0.125 µg/mL	–	0.926	0.96	≥ 1
[4], partner 0.25 µg/mL	–	0.902	0.919	0.937
[4], partner 0.5 µg/mL	–	0.932	0.98	0.957

fitness
Settings	first compound 6.25 µg/mL	first compound 12.5 µg/mL	first compound 25 µg/mL	first compound 50 µg/mL
[1], partner 0.125 µg/mL	0.875	0.51	0.222	–
[1], partner 0.25 µg/mL	0.988	–	–	–
[1], partner 0.5 µg/mL	0.919	–	–	–
[2], partner 0.25 µg/mL	–	0.737	0.682	0.775
[2], partner 0.5 µg/mL	–	0.776	0.762	0.739
[2], partner 1 µg/mL	–	0.796	0.806	0.79
[4], partner 1 µg/mL	–	0.669	0.72	–
[4], partner 2 µg/mL	–	0.0733	0.2	0.111
[4], partner 4 µg/mL	–	0.0244	0.0566	0.0515

From the supplement of paper PMC10627819
